pEC50, pIC50: −log10 of the molar value.
Tests used:
HIF-1α [1] = assay: Ubiquitination assay, TUBE pull-down of polyubiquitinated HIF-1α; format: cell-based, human; settings: HDF, hypoxia
Method: Given HIF-1α stability is known to be regulated at the protein level by ubiquitination, we investigated whether USP7 inhibition modulates HIF-1α polyubiquitination. […] Cells were harvested, lysed and polyubiquitinated proteins pulled down using two types of Tetra Ubiquitin Binding Entities (TUBES); with equal affinity for K48/K63 or 10 times more affinity for […]. Samples were analysed by immuno-blot using a HIF-1α antibody. […] These findings indicate that USP7 inhibition results in K48 polyubiquitination of HIF-1α and consequently, its proteasomal-mediated degradation.
Cells were lysed in a buffer containing 50 mM Tris-HCl, pH 7.5, 150 mM NaCl, 1 mM EDTA, 1% NP-40, 10% Glycerol, 50 mM NaF, 5 mM sodium pyrophosphate, 10 mM glycerol phosphate, 1 mM sodium orthovanadate, protease and phosphatase inhibitor tablet and 50 uM PR-619. Lysates were pre-cleared by centrifugation at 4° C. for 15 mins at 16,000× g and protein concentration determined using BCA method. 20 ul of samples was taken as input. Pre-cleared supernatant containing 0.5 mg of total protein was added to 20 ul equilibrated Agarose-TUBE 1 or TUBE 2 beads (Life Sensors) and incubated for 2 hours at 4° C. on a rocker platform. Beads were collected by low speed centrifugation (1000-5000× g, 4° C.) for 5 minutes and supernatant taken as FT. Beads were washed twice with 1 ml TBS-T (20 mM Tris-HCl, pH 8.0, 0.15M NaCl, 0.1% Tween-20) and collected by low speed centrifugation. Finally, beads were resuspended in 30 ul of SDS reducing sample buffer and boiled for 10 min at 95° C.

[2] = test system: cancer cells, fibroblasts and endothelial cells; assay: Scratch wound cell migration assay; format: cell-based, human; settings: any of tested cells
Method: Pictures of wound closure were taken every 2 hours during a 4-day assay using a time-lapse microscope. Charts are displaying the percentage of wound closure over time.
96-well ImageLock plates were coated with 0.1 mg/ml growth factor reduced Matrigel® and incubated for 1 h at 37° C. Cells were seeded a density of 10,000-40,000 cells/well in 100 μL/well and incubated overnight. Next day wounds were simultaneously created in all wells using the WoundMaker. After wounding, media was aspirated from each well and cells were washed twice with PBS. For invasion cells were overlayed with 50 μL of the Matrigel® top layer at 3mg/ml and incubated for 30 min at 37° C. […] Cell plates were placed into the IncuCyte live-cell analysis system and each well imaged using 10× objective every 2 hours for the total of 5-days. Images were analysed using IncuCyte scratch wound protocol and results presented as percentage of wound confluence.

[3] = test system: HT29, H1299, LNCaP and MCF-7 cells; assay: sVEGF ELISA in cancer cells; format: cell-based, human; settings: MCF-7, HT29, H1299, compared to vehicle-treated cells
Method: Levels of sVEGF released to cell culture media was measured by ELISA.
For the co-culture experiments, 5×10^4 cancer cells were seeded in transwell in 0.5 mL complete growth medium and placed on the top of 0.1×10^6 fibroblasts plated in 12-well in 1 mL low serum growth media overnight. Following day cancer cells were washed with PBS and media replaced with reduced (1%) serum growth media. 0.5×10^6 PBMC were plated on top of fibroblasts, incubated for 45 min and activated with CD3 (1 μg/ml final concentration) and CD28 (5 μg/ml final concentration). […] Monoculture experiments, 0.1×10^6 cells were seeded in 12-well in 1 mL of complete growth media (cancer cells) or low serum growth media (fibroblasts) and incubated overnight. […] Afterwards, cell culture media was collected, cell debris were removed by centrifugation the concentration of VEGF in the cell culture supernatants was measured using the human/mouse VEGF immunoassay Quantikine ELISA kit (R&D systems, Minneapolis, Minn., USA) according to the manufacturer's instructions. For the intracellular VEGF detection, total protein concentration was determined by BCA (Pierce Chemical, USA) and VEGF levels determined using the same kit described above.

[4] = test system: cancer cells, primary and immortalized fibroblasts; assay: Cell proliferation assay (CellTiter-Glo viability); format: cell-based, human
Method: The functional impact of USP7-mediated decrease in VEGF secretion is not on fibroblast or cancer cell proliferation. […] After 72 hours cell viability was measured by Cell-Titer-Glo. The results were normalized to the control non-treated group (mean±SD, n=3).

MMP-2 = MMP-2 in supernatants of HDF and HUVEC co-culture (Luminex); format: cell-based, human; settings: supernatants after 14 days
Method: Cell culture supernatants from tube formation were collected and MMP-2 levels were measured using Luminex®.
Next, the underlying mechanism of tube formation inhibition was investigated. […] To determine whether secretion of MMP-2 is modulated by USP7 inhibition, supernatants from HUVEC and HDF co-cultures were collected after 14 days.
Concentrations of MMP2 and MMP7 were determined in cell culture supernatants in triplicates using Luminex human cytokine/chemokine multiplex kits (Millipore, St. Charles, Mo., USA) according to the manufacturer's protocol.

HIF-1α [5] = assay: Cycloheximide chase assay, HIF-1α half-life
Method: Cells were lysed at the indicated time points (from 0 to 60 min) and samples analysed by immuno-blotting probing for HIF-1α. HIF-1α half-life was quantified by densitometry analysis. β-Actin was included as a normalization control.
Samples were subsequently collected at various time points for immuno-blot analysis probing for HIF-1α levels.
Cells were harvested and lysed at different time points and subjected to Western blot analysis using anti-HIF-1α antibody (D2U3T, Rabbit mAb #14179 Cell Signalling) and β-actin (Santa Cruz: A5316; 1:5000) as a loading control.

VEGFA mRNA = assay: RNA-seq of hypoxia activated HDF, VEGFA mRNA; format: cell-based, human
Method: Afterwards RNA was extracted and analysed by RNA-seq. […] To evaluate which signalling pathways are induced in hypoxia activated fibroblasts, a comparative pathway analysis was performed on of samples coming from both, non-activated (normoxia) and hypoxia activated primary fibroblasts.

RS4; 11 = assay: RS4;11 cell EC50; format: cell-based; settings: Homo sapiens
2D6 = 2D6 (Homo sapiens, UniProt P10635); assay: Cyp inhibition 2D6; format: in vitro ADME; settings: read-out: Cyps: 2D6
Sequence of 2D6 (P10635 whole entry): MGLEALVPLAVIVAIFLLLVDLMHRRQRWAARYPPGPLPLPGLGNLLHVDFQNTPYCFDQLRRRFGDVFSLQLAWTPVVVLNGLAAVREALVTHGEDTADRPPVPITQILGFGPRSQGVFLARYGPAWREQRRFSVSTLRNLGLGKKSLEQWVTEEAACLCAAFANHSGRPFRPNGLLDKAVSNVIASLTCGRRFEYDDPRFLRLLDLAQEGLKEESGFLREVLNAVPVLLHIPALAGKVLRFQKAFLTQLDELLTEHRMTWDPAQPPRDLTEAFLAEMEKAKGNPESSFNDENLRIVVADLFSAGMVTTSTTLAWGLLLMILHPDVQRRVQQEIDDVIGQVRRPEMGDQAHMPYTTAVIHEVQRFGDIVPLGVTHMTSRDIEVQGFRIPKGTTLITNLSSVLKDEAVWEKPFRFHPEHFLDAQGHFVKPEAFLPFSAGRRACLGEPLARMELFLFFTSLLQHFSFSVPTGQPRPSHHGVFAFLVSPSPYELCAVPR

KSol = format: physicochemical
TSol = format: physicochemical
2C9 = 2C9 (Homo sapiens, UniProt P11712); assay: Cyp inhibition 2C9; format: in vitro ADME; settings: read-out: Cyps: 2C9
Sequence of 2C9 (P11712 whole entry): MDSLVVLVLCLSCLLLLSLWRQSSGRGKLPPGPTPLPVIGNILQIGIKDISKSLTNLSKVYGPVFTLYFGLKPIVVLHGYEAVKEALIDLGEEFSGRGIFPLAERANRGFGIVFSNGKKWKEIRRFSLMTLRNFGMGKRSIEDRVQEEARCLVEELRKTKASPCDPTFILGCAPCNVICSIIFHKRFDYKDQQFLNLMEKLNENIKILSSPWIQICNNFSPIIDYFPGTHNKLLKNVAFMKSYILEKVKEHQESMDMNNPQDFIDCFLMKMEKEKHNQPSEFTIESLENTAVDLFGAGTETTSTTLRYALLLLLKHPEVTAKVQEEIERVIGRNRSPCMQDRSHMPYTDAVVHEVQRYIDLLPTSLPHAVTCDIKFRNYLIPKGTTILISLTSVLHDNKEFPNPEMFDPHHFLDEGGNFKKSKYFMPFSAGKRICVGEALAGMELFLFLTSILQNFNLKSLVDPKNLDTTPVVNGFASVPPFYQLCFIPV

SMILES	K63 specific polyubiquitination of HIF-1α (HIF-1α [1]; versus DMSO control)	K63/K48 polyubiquitinated HIF-1α (HIF-1α [1]; AD-04 1 μM, MG132 10 μM, 1 hour)	migration (scratch wound healing) [2]	sVEGF levels in supernatants of cancer cell lines [3]	sensitivity of cancer cell lines ([4]; HT29 and H1299 (data not shown))	sensitivity of cancer cell lines ([4]; LNCaP and MCF-7 (data not shown))	cell viability ([4]; high concentration, normoxia and hypoxia, 72 hours)	MMP-2 levels (MMP-2)	HIF-1α half-life (HIF-1α [5]; HDF, hypoxia, cycloheximide 100 μg/mL, AD-04 1 μM) [min]	reduction of HIF-1α half-life (HIF-1α [5]; versus untreated cells (6 minutes and 36 seconds)) [%]	mRNA expression of anti-angiogenic short (191aa) isoform (VEGFA mRNA; hypoxia, 24 hours)	mRNA expression of pro-angiogenic long (371aa) isoform (VEGFA mRNA; hypoxia, 24 hours)	VEGF mRNA levels (VEGFA mRNA; hypoxic conditions)	pEC50 (RS4; 11)	pIC50 (2D6)	KSol (KSol) [µM]	TSol (TSol) [µM]	pIC50 (2C9)
C[C@H](CC(=O)N1CCC(O)(Cn2cnc3c(-c4ccc(CN)cc4)n(C)nc3c2=O)CC1)c1ccccc1 [AD-04, (R)-3-(4-(Aminomethyl)phenyl)-6-((4-hydroxy-1-(3-phenylbutanoyl)piperidin-4-yl)methyl)-2-methyl-2H-pyrazolo[4,3-d]pyrimidin-7(6H)-one]	no difference	enhanced the accumulation	did not modulate migration	not significantly affected	insensitive	sensitive	do not affect cell viability	decreases	4	40	up-regulated	strongly down-regulated	down-regulated					
CC1(C(=O)N2CCC(O)(Cn3cnc4c(cc(Cl)n4-c4ccc5c(c4)CCO5)c3=O)CC2)CC1 [ADC-159, 6-Chloro-7-(2,3-dihydrobenzofuran-5-yl)-3-((4-hydroxy-1-(1-methylcyclopropane-1-carbonyl)piperidin-4-yl)methyl)-3,7-dihydro-4H-pyrrolo[2,3-d]pyrimidin-4-One]														6.78	< 4.70	199	500	4.96

From US20230088286A1, “USP7 INHIBITOR FOR USE IN THE TREATMENT OF CANCER” (ALMAC DISCOVERY LIMITED, priority 2020, published 2023)
